Assay results from patent publication US5595903A (priority 1989, dated 1997).

Tests used:
AChE [1] = target: T1, AChE (Homo sapiens, UniProt P22303); assay type: biochemical
AChE [2] = target: T1, AChE; assay: biochemical; assay type: biochemical
ChE = ChE (Homo sapiens, UniProt P06276); assay type: biochemical
[3] = human, in vivo; cited from earlier work

T1 sequence (P22303 32-614): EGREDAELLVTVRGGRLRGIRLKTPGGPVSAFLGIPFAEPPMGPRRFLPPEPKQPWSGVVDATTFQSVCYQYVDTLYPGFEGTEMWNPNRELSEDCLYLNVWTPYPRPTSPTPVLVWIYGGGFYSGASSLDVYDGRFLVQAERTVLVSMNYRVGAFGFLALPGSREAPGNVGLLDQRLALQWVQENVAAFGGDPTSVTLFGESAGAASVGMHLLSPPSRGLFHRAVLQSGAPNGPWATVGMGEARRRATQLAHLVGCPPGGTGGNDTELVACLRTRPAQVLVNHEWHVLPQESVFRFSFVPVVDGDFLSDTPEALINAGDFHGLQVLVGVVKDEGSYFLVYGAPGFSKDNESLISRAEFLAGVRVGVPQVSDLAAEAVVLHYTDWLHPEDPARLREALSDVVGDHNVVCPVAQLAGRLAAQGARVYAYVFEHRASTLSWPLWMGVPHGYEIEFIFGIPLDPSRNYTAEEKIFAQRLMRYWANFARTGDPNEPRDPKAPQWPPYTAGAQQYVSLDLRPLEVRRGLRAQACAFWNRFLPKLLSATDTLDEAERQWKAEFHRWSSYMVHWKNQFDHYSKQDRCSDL

## C=CC[N+](C)(C)c1ccc(CCC(=O)CCc2ccc([N+](C)(C)CC=C)cc2)cc1 [BW284C51, 1,5-bis-(4-allyldimethylammoniumphenyl)-pentan-3-one dibromide]
AChE [1]
  sensitivity of tumor mRNA-induced AChE activity to selective inhibitor: sensitive
AChE [2]
  AcThCho degraded: 3 ± 1 pmol/hr per ng mRNA
  remaining activity at 10 µM: 1 ± 0.3%

## CC(C)NP(=O)(NC(C)C)OP(=O)(NC(C)C)NC(C)C [iso-OMPA, tetraisopropylpyrophosphoramide]
ChE
  sensitivity of tumor mRNA-induced ChE activity to selective inhibitor: sensitive
AChE [2]
  AcThCho degraded: 280 ± 10 pmol/hr per ng mRNA
  remaining activity at 10 µM: 98 ± 3%
  sensitivity of oocyte-produced enzyme to inhibition (in words): totally insensitive

B1: BuChE from human serum: Purified BuChE from human serum (protein, UniProt P06276 29-602, looked up)
Cholinesterase: EDDIIIATKNGKVRGMNLTVFGGTVTAFLGIPYAQPPLGRLRFKKPQSLTKWSDIWNATKYANSCCQNIDQSFPGFHGSEMWNPNTDLSEDCLYLNVWIPAPKPKNATVLIWIYGGGFQTGTSSLHVYDGKFLARVERVIVVSMNYRVGALGFLALPGNPEAPGNMGLFDQQLALQWVQKNIAAFGGNPKSVTLFGESAGAASVSLHLLSPGSHSLFTRAILQSGSFNAPWAVTSLYEARNRTLNLAKLTGCSRENETEIIKCLRNKDPQEILLNEAFVVPYGTPLSVNFGPTVDGDFLTDMPDILLELGQFKKTQILVGVNKDEGTAFLVYGAPGFSKDNNSIITRKEFQEGLKIFFPGVSEFGKESILFHYTDWVDDQRPENYREALGDVVGDYNFICPALEFTKKFSEWGNNAFFYYFEHRSSKLPWPEWMGVMHGYEIEFVFGLPLERRDNYTKAEEILSRSIVKRWANFAKYGNPNETQNNSTSWPVFKSTEQKYLTLNTESTRIMTKLRAQQCRFWTSFFPKVLEMTGNIDEAEWEWKAGFHRWNNYMMDWKNQFNDYTSKKESCVGL
[3]
  effect on symptoms of OP-intoxicated patients: improve the symptoms
